From patent US11440888B2, “Microbiocidal quinoline carboxamide derivatives” (SYNGENTA CROP PROTECTION AG, priority 2018, dated 2022)

Row | Compound | melting point
1 | Cc1c(NC(=O)C(Cl)(Cc2ccccc2)CC(F)(F)F)cnc2c(F)cccc12 (stereo not drawn) [E.01, 2-benzyl-2-chloro-4,4,4-trifluoro-N-(8-fluoro-4-methyl-3-quinolyl)butanamide] | 179 to 181 °C
2 | Cc1c(NC(=O)C(Cl)(Cc2ccccc2)CC(C)C)cnc2c(F)cccc12 (stereo not drawn) [E.05, 2-benzyl-2-chloro-N-(8-fluoro-4-methyl-3-quinolyl)-4-methyl-pentanamide] | 140 to 141 °C
3 | O=C(Nc1cnc2c(F)cccc2c1)C(Cl)(Cc1ccccc1)CC(F)(F)F (stereo not drawn) [E.06, 2-benzyl-2-chloro-4,4,4-trifluoro-N-(8-fluoro-3-quinolyl)butanamide] | 106 to 108 °C
